# Where a name gives a salt, the structure may show the parent alone. Read-outs that look alike come from different tables or passages of the source.
# Target: T1, recombinant full-length USP7 (Homo sapiens, UniProt Q93009)
# T1 construct: A 25 μl reaction volume containing recombinant full-length USP7 (62 pM)
# Assay: USP7-mediated ubiquitin-rhodamine cleavage assay
# Assay type: biochemical
# Details: recombinant full-length USP7 62 pM, ubiquitin-rhodamine 100 nM, 1 hour reaction at room temperature
# Procedure, shortened: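 Full-length recombinant USP7 (62 pM) in 20 mM HEPES pH 7.3, 150 mM NaCl, 1 mM TCEP, 125 μg/ml BSA, 1% DMSO, preincubated with compound 30 min at RT. Ubiquitin-rhodamine (100 nM final) cleaved 1 h at RT in the dark, stopped with acetic acid; rhodamine fluorescence read, IC50 by 4-parameter nonlinear fit.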
# [1] = 30-minute incubation with compound, read-out: Potency: USP7 IC50
# [2] = 30-minute pre-incubation, read-out: Potency (USP7 IC50)
# T1 sequence (Q93009 whole entry): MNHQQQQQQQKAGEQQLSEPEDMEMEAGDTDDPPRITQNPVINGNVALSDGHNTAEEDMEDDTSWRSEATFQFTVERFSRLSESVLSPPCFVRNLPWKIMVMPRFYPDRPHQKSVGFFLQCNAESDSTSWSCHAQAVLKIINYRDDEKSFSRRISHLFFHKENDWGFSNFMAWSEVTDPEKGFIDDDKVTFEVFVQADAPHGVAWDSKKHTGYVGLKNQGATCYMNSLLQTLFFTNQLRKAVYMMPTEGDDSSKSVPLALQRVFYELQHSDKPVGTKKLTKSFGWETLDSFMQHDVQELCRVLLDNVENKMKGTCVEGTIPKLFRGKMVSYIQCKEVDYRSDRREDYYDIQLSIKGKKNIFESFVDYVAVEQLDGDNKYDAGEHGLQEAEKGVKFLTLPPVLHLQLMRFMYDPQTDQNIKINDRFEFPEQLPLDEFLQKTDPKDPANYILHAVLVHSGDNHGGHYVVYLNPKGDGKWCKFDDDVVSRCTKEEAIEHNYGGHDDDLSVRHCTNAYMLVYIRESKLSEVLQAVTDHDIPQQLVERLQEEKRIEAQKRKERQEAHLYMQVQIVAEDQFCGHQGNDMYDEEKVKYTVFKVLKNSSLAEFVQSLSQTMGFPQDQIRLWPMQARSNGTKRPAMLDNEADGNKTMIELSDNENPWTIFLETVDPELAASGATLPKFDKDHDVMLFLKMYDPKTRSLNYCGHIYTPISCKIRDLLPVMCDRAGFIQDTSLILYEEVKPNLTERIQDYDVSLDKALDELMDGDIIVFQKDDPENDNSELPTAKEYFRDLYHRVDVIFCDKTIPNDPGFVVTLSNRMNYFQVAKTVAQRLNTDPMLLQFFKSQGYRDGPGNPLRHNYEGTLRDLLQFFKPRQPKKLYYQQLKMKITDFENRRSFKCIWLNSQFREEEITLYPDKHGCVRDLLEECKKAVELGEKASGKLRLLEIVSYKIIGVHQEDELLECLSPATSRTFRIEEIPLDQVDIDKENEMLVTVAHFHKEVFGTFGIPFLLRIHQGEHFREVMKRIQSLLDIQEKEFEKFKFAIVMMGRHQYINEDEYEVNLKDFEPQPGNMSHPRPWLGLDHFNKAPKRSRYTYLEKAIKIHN
SMILES,IC50 [1] [µM],IC50 [2] [µM],other results
"Cc1cc(Cl)cc(-c2ncnc3cc(CN4C(=O)C5C(C4=O)C5(C)C)sc23)c1O[C@@H]1CCNC[C@@H]1C (stereo partly drawn) [Example 365, 3-[[4-[5-chloro-3-methyl-2-[[(3S,4R)-3-methyl-4-piperidyl]oxy]phenyl]thieno[3,2-d]pyrimidin-6-yl]methyl]-6,6-dimethyl-3-azabicyclo[3.1.0]hexane-2,4-dione dihydrochloride]",< 1,,
"Cc1cc(Cl)cc(-c2ccnc3cc(CO)sc23)c1O[C@@H]1CCC[C@H]1N [Example 75, (7-(2-(((1R,2R)-2-Aminocyclopentyl)oxy)-5-chloro-3-methylphenyl)thieno[3,2-b]pyridin-2-yl)methanol]",10 to 30,,
"CCC(O)c1cc2ncnc(-c3cc(C#N)cc(C)c3O[C@@H]3CNC[C@@H]3F)c2s1 (stereo partly drawn) [Example 95, 4-(((3R,4S)-4-Fluoropyrrolidin-3-yl)oxy)-3-(6-(1-hydroxypropyl)thieno[3,2-d]pyrimidin-4-yl)-5-methylbenzonitrile]",< 1,,
"Cc1cc(Cl)cc(-c2ccnc3cc(Cn4c(=O)ccn(CC(F)(F)F)c4=O)sc23)c1O[C@H]1CCCN(C(=O)C(F)(F)F)C1 [Example 659, 3-[[7-[5-chloro-3-methyl-2-[[(3S)-1-(2,2,-trifluoroacetyl)-3-piperidyl]oxy]phenyl]thieno[3,2-b]pyridin-2-yl]methyl]-1-(2,2,2-trifluoroethyl)pyrimidine-2,4-dione]",,< 1,
"Cc1cc(Cl)cc(-c2ncnc3cc(CN4C(=O)C5C(C4=O)C5(C)C)sc23)c1OC1CNCC1(C)F (centres unmarked) [Example 386, 3-[[4-[5-chloro-2-(4-fluoro-4-methyl-pyrrolidin-3-yl)oxy-3-methyl-phenyl]thieno[3,2-d]pyrimidin-6-yl]methyl]-6,6-dimethyl-3-azabicyclo[3.1.0]hexane-2,4-dione dihydrochloride]",< 1,,
"Cc1cc(Cl)cc(-c2ccnc3cc(CN4C(=O)CCNC4=O)sc23)c1O[C@@H]1CNC[C@@H]1F [Example 152, 3-((7-(5-Chloro-2-(((3R,4S)-4-fluoropyrrolidin-3-yl)oxy)-3-methylphenyl)thieno[3,2-b]pyridin-2-yl)methyl)dihydropyrimidine-2,4(1H,3H)-dione]",< 1,,
"Cc1cc(Cl)cc(-c2ccnc3cc(Cn4c(=O)ccn(C)c4=O)sc23)c1OC1CNCC(F)(F)C1 (centres unmarked) [Example 442, 3-[[7-[5-chloro-2-[(5,5-difluoro-3-piperidyl)oxy]-3-methyl-phenyl]thieno[3,2-b]pyridin-2-yl]methyl]-1-methyl-pyrimidine-2,4-dione; 2,2,2-trifluoroacetic acid]",,< 1,
"CCn1ccc(=O)n(Cc2cc3nccc(-c4cc(Cl)cc(C)c4O[C@@H]4CNC[C@@H]4F)c3s2)c1=O [Example 452, 3-[[7-[5-chloro-2-[(3R,4S)-4-fluoropyrrolidin-3-yl]oxy-3-methyl-phenyl]thieno[3,2-b]pyridin-2-yl]methyl]-1-ethyl-pyrimidine-2,4-dione]",,< 1,
"Cc1cc(Cl)cc(-c2ccnc3cc(CN4C(=O)CCNC4=O)sc23)c1OC1CCNCC1 [Example 222, 3-((7-(5-Chloro-3-methyl-2-(piperidin-4-yloxy)phenyl)thieno[3,2-b]pyridin-2-yl)methyl)dihydropyrimidine-2,4(1H,3H)-dione]",< 1,,
"Cc1cc(Cl)cc(-c2ncnc3cc(CN4C(=O)C5CC5C4=O)sc23)c1OC1CCNCC1 (centres unmarked) [Example 231, 3-((4-(5-Chloro-3-methyl-2-(piperidin-4-yloxy)phenyl)thieno[3,2-d]pyrimidin-6-yl)methyl)-3-azabicyclo[3.1.0]hexane-2,4-dione]",1 to 10,,
"Cc1cc(Cl)cc(-c2ncnc3cc(Cn4c(=O)ccn(CC(F)(F)F)c4=O)sc23)c1O[C@@H]1CCNC[C@@H]1C [Example 584, 3-[[4-[5-chloro-3-methyl-2-[[(3S,4R)-3-methyl-4-piperidyl]oxy]phenyl]thieno[3,2-d]pyrimidin-6-yl]methyl]-1-(2,2,2-trifluoroethyl)pyrimidine-2,4-dione]",,< 1,
"CCN1C[C@H](F)[C@H](Oc2c(C)cc(Cl)cc2-c2ccnc3cc(Cn4c(=O)ccn(C)c4=O)sc23)C1 [Example 459, 3-[[7-[5-chloro-2-[(3R,4S)-1-ethyl-4-fluoro-pyrrolidin-3-yl]oxy-3-methyl-phenyl]thieno[3,2-b]pyridin-2-yl]methyl]-1-methyl-pyrimidine-2,4-dione; 2,2,2-trifluoroacetic acid]",,< 1,
"Cc1cc(Cl)cc(-c2ccnc3cc(CO)sc23)c1O[C@@H]1CCCC[C@@H]1N [Example 196, (7-(2-(((1R,2S)-2-Aminocyclohexyl)oxy)-5-chloro-3-methylphenyl)thieno[3,2-b]pyridin-2-yl)methanol]",> 30,,
"Cc1cc(Cl)cc(-c2ccnc3cc(CN4C(=O)CCCC4C(F)(F)F)sc23)c1O[C@@H]1CNC[C@@H]1F (stereo partly drawn) [Example 103, 1-((7-(5-Chloro-2-(((3R,4S)-4-fluoropyrrolidin-3-yl)oxy)-3-methylphenyl)thieno[3,2-b]pyridin-2-yl)methyl)-6-(trifluoromethyl)piperidin-2-one]",1 to 10,,
"Cc1cc(C#N)cc(-c2ccnc3cc(CN4C(=O)CCC4=O)sc23)c1OC1CCNCC1 [Example 212, 3-(2-((2,5-Dioxopyrrolidin-1-yl)methyl)thieno[3,2-b]pyridin-7-yl)-5-methyl-4-(piperidin-4-yloxy)benzonitrile]",< 1,,
"Cc1cc(Cl)cc(-c2ccnc3cc(CN4C(=O)C5C(C4=O)C5(C)C)sc23)c1OC1(C)CNC1 (centres unmarked) [Example 393, 3-[[7-[5-chloro-3-methyl-2-(3-methylazetidin-3-yl)oxy-phenyl]thieno[3,2-b]pyridin-2-yl]methyl]-6,6-dimethyl-3-azabicyclo[3.1.0]hexane-2,4-dione dihydrochloride]",< 1,,
"Cc1cc(Cl)cc(-c2ccnc3cc(Cn4c(=O)ccn(C)c4=O)sc23)c1OC(C)CN (centres unmarked) [Example 553, 3-[[7-[2-(2-amino-1-methyl-ethoxy)-5-chloro-3-methyl-phenyl]thieno[3,2-b]pyridin-2-yl]methyl]-1-methyl-pyrimidine-2,4-dione; 2,2,2-trifluoroacetic acid]",,< 1,
"Cc1cc(Cl)cc(-c2ncnc3cc(Cn4c(=O)ccn(C)c4=O)sc23)c1O[C@H]1CCCNCC1 [Example 582, 3-[[4-[2-[(4S)-azepan-4-yl]oxy-5-chloro-3-methyl-phenyl]thieno[3,2-d]pyrimidin-6-yl]methyl]-1-methyl-pyrimidine-2,4-dione]",,< 1,
"CCOC(=O)NN(Cc1cc2nccc(-c3cc(Cl)cc(C)c3O[C@@H]3CCNC[C@@H]3C)c2s1)C(=O)OCC [Example 402, ethyl N-[[7-[5-chloro-3-methyl-2-[[(3S,4R)-3-methyl-4-piperidyl]oxy]phenyl]thieno[3,2-b]pyridin-2-yl]methyl]-N-(ethoxycarbonylamino)carbamate]",< 1,,
"Cc1cc(C(F)(F)F)cc(-c2ccnc3cc(CN4C(=O)C5CC5C4=O)sc23)c1O[C@@H]1CNC[C@@H]1F (stereo partly drawn) [Example 131, 3-((7-(2-(((3R,4S)-4-Fluoropyrrolidin-3-yl)oxy)-3-methyl-5-(trifluoromethyl)phenyl)thieno[3,2-b]pyridin-2-yl)methyl)-3-azabicyclo[3.1.0]hexane-2,4-dione]",< 1,,
"Cc1cc(Cl)cc(-c2ccnc(CCCN3C(=O)CCC3=O)c2)c1OC1CNC[C@@H]1F (stereo partly drawn) [Example 408, 1-[3-[4-[5-chloro-2-[(4S)-4-fluoropyrrolidin-3-yl]oxy-3-methyl-phenyl]-2-pyridyl]propyl]pyrrolidine-2,5-dione; 2,2,2-trifluoroacetic acid]",,1 to 10,
"CO[C@H]1CNC[C@H]1Oc1c(C)cc(Cl)cc1-c1ccnc2cc(Cn3c(=O)ccn(CC(F)(F)F)c3=O)sc12 [Example 655, 3-[[7-[5-chloro-2-[(3R,4S)-4-methoxypyrrolidin-3-yl]oxy-3-methyl-phenyl]thieno[3,2-b]pyridin-2-yl]methyl]-1-(2,2,2-trifluoroethyl)pyrimidine-2,4-dione]",,< 1,
"Cc1cc(Cl)cc(-c2ccnc3cc(Cn4c(=O)ccn(CC(F)(F)F)c4=O)sc23)c1OC1CC2CC1CN2 (centres unmarked) [Example 577, 3-[[7-[2-(2-azabicyclo[2.2.1]heptan-5-yloxy)-5-chloro-3-methyl-phenyl]thieno[3,2-b]pyridin-2-yl]methyl]-1-(2,2,2-trifluoroethyl)pyrimidine-2,4-dione; 2,2,2-trifluoroacetic acid]",,< 1,
"Cc1cc(Cl)cc(-c2ncnc3cc(Cn4c(=O)ccn(C(C)C)c4=O)sc23)c1OC1CC(N)C1 (centres unmarked) [Example 541, 3-[[4-[2-(3-aminocyclobutoxy)-5-chloro-3-methyl-phenyl]thieno[3,2-d]pyrimidin-6-yl]methyl]-1-isopropyl-pyrimidine-2,4-dione; 2,2,2-trifluoroacetic acid]",,< 1,
"COC1CCC(Oc2c(C)cc(Cl)cc2-c2ccnc3cc(Cn4c(=O)ccn(CC(F)(F)F)c4=O)sc23)CC1 (centres unmarked) [Example 674, 3-[[7-[5-chloro-2-(4-methoxycyclohexoxy)-3-methyl-phenyl]thieno[3,2-b]pyridin-2-yl]methyl]-1-(2,2,2-trifluoroethyl)pyrimidine-2,4-dione]",,,"IC50 (30-minute incubation, read-out: Potency (USP7 IC50)): < 1 µM"
"Cc1cc(Cl)cc(-c2ccnc3cc(CN4C(=O)C5CC5C4=O)sc23)c1O[C@@H]1CCNC[C@@H]1C (stereo partly drawn) [Example 324, 3-[[7-[5-chloro-3-methyl-2-[[(3S,4R)-3-methyl-4-piperidyl]oxy]phenyl]thieno[3,2-b]pyridin-2-yl]methyl]-3-azabicyclo[3.1.0]hexane-2,4-dione]",< 1,,

# Source: US10722514B2 (FLX Bio, Inc., priority 2017, dated 2020)
